In PubChem BioAssay (NCI):
Values joined by “and” are separate entries in the source; they are usually repeats but may differ in a detail not shown here. Equal entries are not always repeated.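 Five compound concentrations were applied to cells in 96-well plates for 48 hours; endpoints were derived by simple linear interpolation of the resulting dose-response curve. Here, GI50 denotes the concentration required for 50% inhibition of growth. TGI: concentration producing complete growth inhibition.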

Experiments:
Assay in all cases: NCI-60 cell line screen, 48 h
[1] = tested on: A498 renal
[2] = tested on: ACHN renal
[3] = tested on: BT-549 breast
[4] = tested on: EKVX NSCLC
[5] = tested on: K-562 leukemia
[6] = tested on: NCI-H522 lung
[7] = tested on: OVCAR-3 ovarian
[8] = tested on: RXF 393 renal
[9] = tested on: SNB-19 CNS
[10] = tested on: UO-31 renal

SMILES: Cc1cc(N[C@@H]2CCC[C@H](Nc3ccnc4cc(Cl)ccc34)C2)nc(N2CCCCCC2)n1
- GI50 [1]: 1.74 µM
- TGI [1]: 3.2 µM
- GI50 [2]: 1.83 µM
- TGI [2]: 3.82 µM
- GI50 [3]: 1.75 µM
- TGI [3]: 3.75 µM
- GI50 [4]: 1.62 µM
- TGI [4]: 3.84 µM
- GI50 [5]: 0.359 µM
- TGI [5]: 1.69 µM
- GI50 [6]: 1.93 µM
- TGI [6]: 4 µM
- GI50 [7]: 1.91 µM
- TGI [7]: 4.06 µM
- GI50 [8]: 1.55 µM
- TGI [8]: 3.1 µM
- GI50 [9]: 2.56 µM
- TGI [9]: 8.08 µM
- GI50 [10]: 1.13 µM
- TGI [10]: 2.4 µM

SMILES: NC(N)=N/N=C/c1c(Cl)cccc1Cl
- GI50 [1]: 3.98 µM
- TGI [1]: 36.9 µM
- GI50 [2]: 25.4 µM
- TGI [2]: > 100 µM
- GI50 [3]: 16 µM
- TGI [3]: 44.9 µM
- GI50 [4]: 15.9 µM
- TGI [4]: 47.5 µM
- GI50 [5]: 24.1 µM
- TGI [5]: 63.1 µM
- GI50 [6]: 25.8 µM
- TGI [6]: 77.2 µM
- GI50 [7]: 28.1 µM
- TGI [7]: > 100 µM
- GI50 [8]: 15.5 µM
- TGI [8]: 35.8 µM
- GI50 [9]: 37.7 µM
- TGI [9]: > 100 µM
- GI50 [10]: 16.5 µM
- TGI [10]: 64.7 µM

SMILES: CC(=O)Nc1ccc(-c2csc(Nc3cccc(-c4csc(C)n4)c3)n2)cc1
- GI50 [1]: 6.92 µM
- TGI [1]: > 29.1 µM
- GI50 [2]: 1.87 µM
- TGI [2]: 22.6 µM
- GI50 [3]: 8.34 µM
- TGI [3]: 44.6 µM
- GI50 [4]: 4.99 µM
- TGI [4]: 22.2 µM
- GI50 [5]: 0.385 µM
- TGI [5]: 9.55 µM
- GI50 [6]: 7.72 µM
- TGI [6]: > 28 µM
- GI50 [7]: 0.238 µM
- GI50 [8]: 2.01 µM
- TGI [8]: > 12.9 µM
- GI50 [9]: 1.6 µM
- TGI [9]: > 50 µM
- GI50 [10]: 6.73 µM
- TGI [10]: 22.8 µM

SMILES: COc1cc(N(CCC#N)CCC#N)ccc1/C(N=Nc1ccc(Cl)cc1)=N/NC(=O)c1cc(Br)ccc1O
- GI50 [1]: > 150 µg/mL
- TGI [1]: > 150 µg/mL
- GI50 [2]: 86.1 µg/mL
- TGI [2]: > 150 µg/mL
- GI50 [3]: 140 µg/mL
- TGI [3]: > 150 µg/mL
- GI50 [4]: 72.4 µg/mL
- TGI [4]: > 150 µg/mL
- GI50 [5]: 86.4 µg/mL
- TGI [5]: > 150 µg/mL
- GI50 [6]: 56.4 µg/mL
- TGI [6]: > 150 µg/mL
- GI50 [7]: 50 µg/mL
- TGI [7]: > 150 µg/mL
- GI50 [8]: 36.9 µg/mL
- TGI [8]: > 150 µg/mL
- GI50 [9]: > 150 µg/mL
- TGI [9]: > 150 µg/mL
- GI50 [10]: 86.6 µg/mL
- TGI [10]: > 150 µg/mL

SMILES: O=C(Nc1cc(C(F)(F)F)cc(C(F)(F)F)c1)c1cc(Cl)ccc1O
- GI50 [1]: 0.045 µM and < 0.0141 µM
- TGI [1]: 0.241 µM and 0.178 µM
- GI50 [2]: 0.294 µM and 0.26 µM
- TGI [2]: 1.19 µM and 0.978 µM
- GI50 [3]: 0.206 µM and 0.213 µM
- TGI [3]: 0.714 µM and 0.712 µM
- GI50 [4]: 0.295 µM and 0.288 µM
- TGI [4]: > 3.58 µM and 3.43 µM
- GI50 [5]: 0.189 µM and 0.161 µM
- TGI [5]: > 61.3 µM
- GI50 [6]: 0.186 µM and 0.214 µM
- TGI [6]: 0.818 µM and 1.9 µM
- GI50 [7]: 0.239 µM and 0.23 µM
- TGI [7]: > 3.54 µM and 9.93 µM
- GI50 [8]: 0.245 µM and 0.19 µM
- TGI [8]: 1.16 µM and 0.673 µM
- GI50 [9]: 0.291 µM and 0.233 µM
- TGI [9]: > 10 µM and 12 µM
- GI50 [10]: 0.246 µM and 0.224 µM
- TGI [10]: 0.856 µM and 0.811 µM

SMILES: Clc1cc2c(c(CSc3nc4ccccc4n4cccc34)c1)OCOC2
- GI50 [1]: 22.6 µM
- TGI [1]: > 100 µM
- GI50 [2]: 67.3 µM
- TGI [2]: > 100 µM
- GI50 [3]: 78.1 µM
- TGI [3]: > 100 µM
- GI50 [4]: 29.6 µM
- TGI [4]: > 100 µM
- GI50 [5]: > 100 µM
- TGI [5]: > 100 µM
- GI50 [6]: 23.4 µM
- TGI [6]: > 100 µM
- GI50 [7]: 7.5 µM
- TGI [7]: > 100 µM
- GI50 [8]: 15.2 µM
- TGI [8]: 61.9 µM
- GI50 [9]: 41 µM
- TGI [9]: > 100 µM
- GI50 [10]: > 100 µM
- TGI [10]: > 100 µM

SMILES: O=C(Nc1ccc(Br)cc1F)c1cc(Cl)ccc1O
- GI50 [1]: 0.16 µM
- TGI [1]: 0.604 µM
- GI50 [2]: 0.619 µM
- TGI [2]: > 31.3 µM
- GI50 [3]: 0.44 µM
- TGI [3]: 2.1 µM
- GI50 [4]: 1.12 µM
- TGI [4]: > 26.2 µM
- GI50 [5]: 0.489 µM
- TGI [5]: > 50.7 µM
- GI50 [6]: 0.361 µM
- TGI [6]: 4.34 µM
- GI50 [7]: 0.476 µM
- TGI [7]: > 26.6 µM
- GI50 [8]: 0.852 µM
- TGI [8]: 3.99 µM
- GI50 [9]: 0.418 µM
- TGI [9]: > 100 µM
- GI50 [10]: 0.207 µM
- TGI [10]: 2.36 µM

SMILES: O=c1oc2ccc(-c3ccc(F)cc3F)cc2c(=O)n1-c1cccc(C(F)(F)F)c1
- GI50 [1]: 0.21 µM
- TGI [1]: 0.888 µM
- GI50 [2]: 2.25 µM
- TGI [2]: 8.37 µM
- GI50 [3]: 0.605 µM
- TGI [3]: 3.7 µM
- GI50 [4]: 2.16 µM
- TGI [4]: > 100 µM
- GI50 [5]: 1.2 µM
- TGI [5]: 18.2 µM
- GI50 [6]: 0.343 µM
- TGI [6]: 5.61 µM
- GI50 [7]: 0.784 µM
- TGI [7]: 12.8 µM
- GI50 [8]: 1.23 µM
- TGI [8]: 4.14 µM
- GI50 [9]: 1.83 µM
- TGI [9]: > 100 µM
- GI50 [10]: 1.38 µM
- TGI [10]: 8.22 µM

SMILES: S=c1[nH]c(=S)c2cc3ccccc3nc2[nH]1
- GI50 [1]: > 100 µM
- TGI [1]: > 100 µM
- GI50 [2]: > 100 µM
- TGI [2]: > 100 µM
- GI50 [3]: 35.4 µM
- TGI [3]: > 100 µM
- GI50 [4]: 31 µM
- TGI [4]: > 100 µM
- GI50 [5]: > 100 µM
- TGI [5]: > 100 µM
- GI50 [6]: 20.5 µM
- TGI [6]: 51.7 µM
- GI50 [7]: 12.9 µM
- TGI [7]: 95.8 µM
- GI50 [8]: > 100 µM
- TGI [8]: > 100 µM
- GI50 [9]: 35.5 µM
- TGI [9]: > 100 µM
- GI50 [10]: > 100 µM
- TGI [10]: > 100 µM

SMILES: COc1ccc2nc3ccccc3c(NCc3ccc(F)cc3)c2c1
- GI50 [1]: 1.62 µM
- TGI [1]: 5.74 µM
- GI50 [2]: 1.82 µM
- TGI [2]: 6.68 µM
- GI50 [3]: 4.75 µM
- TGI [3]: 11.4 µM
- GI50 [4]: 2.16 µM
- TGI [4]: 7.95 µM
- GI50 [5]: 1.52 µM
- TGI [5]: 6.94 µM
- GI50 [6]: 2.06 µM
- TGI [6]: 9.38 µM
- GI50 [7]: 2.25 µM
- TGI [7]: 7.81 µM
- GI50 [8]: 1.13 µM
- TGI [8]: 3.1 µM
- GI50 [9]: 2.04 µM
- TGI [9]: 7.62 µM
- GI50 [10]: 0.962 µM
- TGI [10]: 3.96 µM

SMILES: N#C/C(=C\c1ccc2ccccc2c1)C(=O)c1ccccc1
- TGI [1]: > 100 µM
- TGI [2]: > 100 µM
- TGI [3]: > 100 µM
- TGI [4]: > 100 µM
- TGI [5]: 99.2 µM
- TGI [6]: > 100 µM
- TGI [7]: > 94.4 µM
- TGI [8]: > 55.4 µM
- TGI [9]: > 100 µM
- TGI [10]: > 100 µM

SMILES: CC(NCCC(c1ccccc1)c1ccccc1)c1ccccc1 (centres undefined)
- GI50 [1]: 1.45 µM
- TGI [1]: 3.93 µM
- GI50 [2]: 3.32 µM
- TGI [2]: 12 µM
- GI50 [3]: 5.42 µM
- TGI [3]: 17.6 µM
- GI50 [4]: 3.63 µM
- TGI [4]: 16.5 µM
- GI50 [5]: 2.42 µM
- TGI [5]: 5.23 µM
- GI50 [6]: 1.81 µM
- TGI [6]: 3.48 µM
- GI50 [7]: 3.21 µM
- TGI [7]: 10.7 µM
- GI50 [8]: 1.46 µM
- TGI [8]: 3.23 µM
- GI50 [9]: 1.56 µM
- TGI [9]: 3.44 µM
- GI50 [10]: 2.19 µM
- TGI [10]: 12.1 µM
